Consider 40 molecules from US8916702B2 (priority 2012, dated 2014).

The test system of the experiment is HCV pseudoparticles (genotype 1a HCV E1 and E2 envelope, H77C isolate). Nature of the experiment: microbe, parasite or virus in culture. The class given is cell-based. To be noted: Hepatitis C virus.
Setting [1] is: Huh-7, read-out: Activity (EC50 class), HCV pseudoparticles (genotype 1a, H77C) in Huh7 cells, EC50 expressed as class A/B.
Setting [2] is: Huh-7, 48 h, read-out: Activity (EC50 class), HCV pseudoparticle infection of Huh7 cells, luciferase 2 days after infection, EC50 expressed as class A/B.
The mark [3] stands for this setting: Huh-7, 48 h, read-out: Activity (EC50 class), HCV pseudoparticles, Huh7 cells, luciferase 2 days after infection, average of duplicates.
Setting [4] is: Huh-7, 48 h, HCV pseudoparticle infection of Huh7 cells, luciferase 2 days after infection, average of duplicates.
Where [5] appears, read: Huh-7, 48 h, HCV pseudoparticles (genotype 1a, H77C) in Huh7 cells, average of duplicate, luciferase 2 days after infection.

The structures appear in SMILES notation. Read-outs that look alike come from different tables or passages of the source.

Consider `Cc1nccn1-c1ccc(NC(=O)C(=O)NC[C@H](NC(=O)c2ccc(Nc3nc(NC4(c5ccc(Cl)cc5)CC4)nc(OCC(F)(F)F)n3)cc2)C(=O)O)cc1` [Compound 3286], for which the EC50 (commonly the concentration needed to bring the measured effect to its halfway point) under setting [1] was in the range of 0.01 to 10 nM.

Consider `COC(=O)[C@H](CCNC(=O)C(=O)NCC1CCCN(C(=O)OC(C)(C)C)C1)NC(=O)c1ccc(Nc2nc(NC3(c4ccc(Cl)cc4)CC3)nc(OCC(F)(F)F)n2)cc1` (stereo partly drawn) [Compound 1200], for which, under setting [2], the concentration for a half-maximal effect (EC50) was 0.01 to 10 nM.

For `COC(=O)[C@H](CCNC(=O)C(=O)Nc1cccc(C2=NC(C)=CC2)c1)NC(=O)c1ccc(Nc2nc(NC3(c4ccc(Cl)cc4)CC3)nc(OCC(F)(F)F)n2)cc1` [Compound 3601], under setting [3], the EC50 lay within 0.01 to 10 nM.

For `COc1cc(NC(=O)C(=O)NC[C@H](NC(=O)c2ccc(Nc3nc(NC4(c5ccc(Cl)cc5)CC4)nc(OCC(F)(F)F)n3)cc2)C(=O)O)ccn1` [Compound 1348], the EC50 was 0.5 nM under setting [4] and 0.01 to 10 nM under setting [2].

Regarding `COC(=O)[C@H](CNC(=O)C(=O)Nc1ccc(S(=O)(=O)N2CCCC2)cc1)NC(=O)c1ccc(Nc2nc(NC3(c4ccc(Cl)cc4)CC3)nc(OCC(F)(F)F)n2)cc1` [Compound 3106], the EC50 under setting [1] is 0.01 to 10 nM.

`COC(=O)[C@H](CCNC(=O)C(=O)Nc1cn[nH]c1)NC(=O)c1ccc(Nc2nc(NC3(c4ccc(Cl)cc4)CC3)nc(OCC(F)(F)F)n2)cc1` [Compound 1224]: the EC50 under setting [2] fell in the range of 0.01 to 10 nM.

As to `CNC(=O)C(=O)NCC(NC(=O)c1ccc(Nc2nc(NC3(c4ccc(Cl)cc4)CC3)nc(OCC(F)(F)F)n2)cc1)C(=O)O` (stereo in doubt) [Compound 1006, (S)-2-(4-(4-(1-(4-chlorophenyl)cyclopropylamino)-6-(2,2,2-trifluoroethoxy)-1,3,5-triazin-2-ylamino)benzamido)-3-(2-(methylamino)-2-oxoacetamido)propanoic acid], the EC50 was 0.69 nM under setting [4] and 0.01 to 10 nM under setting [2].

In the case of `O=C(NCC[C@H](NC(=O)c1ccc(Nc2nc(NC3(c4ccc(Cl)cc4)CC3)nc(OCC(F)(F)F)n2)cc1)C(=O)O)C(=O)Nc1cc[nH]n1` [Compound 1265], under setting [2], the EC50 fell in the range of 0.01 to 10 nM.

Consider `COc1ccc(NC(=O)C(=O)NCC(C)(C)CNC(=O)c2ccc(Nc3nc(NC4(c5ccc(Cl)cc5)CC4)nc(OCC(F)(F)F)n3)cc2)c(C)c1` [Compound 3068], for which the EC50 under setting [1] lay within 0.01 to 10 nM.

Consider `CC(C)(C)C1CCC(NC(=O)C(=O)NCC[C@H](NC(=O)c2ccc(Nc3nc(NC4(c5ccc(Cl)cc5)CC4)nc(OCC(F)(F)F)n3)cc2)C(=O)O)CC1` (stereo partly drawn) [Compound 1128], for which the EC50 under setting [2] is 0.01 to 10 nM.

`Cc1nccn1Cc1ccc(NC(=O)C(=O)NCC[C@H](NC(=O)c2ccc(Nc3nc(NC4(c5ccc(Cl)cc5)CC4)nc(OCC(F)(F)F)n3)cc2)C(=O)O)cc1` [Compound 3542]: the EC50 under setting [1] is 10 to 1000 nM.

For the molecule `COC(=O)[C@H](CNC(=O)C(=O)Nc1ccc(OC(F)F)cc1)NC(=O)c1ccc(Nc2nc(NC3(c4ccc(Cl)cc4)CC3)nc(OCC(F)(F)F)n2)cc1` [Compound 3215], the half-maximal effective concentration (EC50) under setting [1] lay in the range of 0.01 to 10 nM.

Take `CN(C)C(=O)C(=O)NCC[C@H](NC(=O)c1ccc(Nc2nc(NC3(c4ccc(Cl)cc4)CC3)nc(OCC(F)(F)F)n2)cc1)C(=O)O` [Compound 1015, (S)-2-(4-(4-(1-(4-chlorophenyl)cyclopropylamino)-6-(2,2,2-trifluoroethoxy)-1,3,5-triazin-2-ylamino)benzamido)-4-(2-(dimethylamino)-2-oxoacetamido)butanoic acid]: under setting [2], the EC50 lay in the range of 0.01 to 10 nM.

On to `COC(=O)[C@H](CNC(=O)C(=O)Nc1cccc(-c2cccnc2)c1)NC(=O)c1ccc(Nc2nc(NC3(c4ccc(Cl)cc4)CC3)nc(OCC(F)(F)F)n2)cc1` [Compound 3728], for which the EC50 under setting [3] is 0.01 to 10 nM.

With `CC(C)(CNC(=O)C(=O)Nc1ccc(Cl)c(Cl)c1)CNC(=O)c1ccc(Nc2nc(NC3(c4ccc(Cl)cc4)CC3)nc(OCC(F)(F)F)n2)cc1` [Compound 3793], the EC50 under setting [3] was 0.01 to 10 nM.

In the case of `COC(=O)[C@H](CCNC(=O)C(=O)NC1CCN(C(=O)OC(C)(C)C)CC1)NC(=O)c1ccc(Nc2nc(NC3(c4ccc(Cl)cc4)CC3)nc(OCC(F)(F)F)n2)cc1` [Compound 1101], under setting [2], the EC50 lay within 0.01 to 10 nM.

As to `Cc1ccc(NC(=O)C(=O)NCC(C)(C)CNC(=O)c2ccc(Nc3nc(NC4(c5ccc(Cl)cc5)CC4)nc(OCC(F)(F)F)n3)cc2)cc1F` [Compound 3044], the EC50 under setting [1] is 0.01 to 10 nM.

Consider `COC(=O)[C@H](CCNC(=O)C(=O)NC1CCCC(C)C1)NC(=O)c1ccc(Nc2nc(NC3(c4ccc(Cl)cc4)CC3)nc(OCC(F)(F)F)n2)cc1` (stereo partly drawn) [Compound 1076], for which the EC50 under setting [2] lay within 0.01 to 10 nM.

For the molecule `Cc1ccn(-c2ccccc2NC(=O)C(=O)NCC(C)(C)CNC(=O)c2ccc(Nc3nc(NC4(c5ccc(Cl)cc5)CC4)nc(OCC(F)(F)F)n3)cc2)n1` [Compound 3260], the EC50 under setting [1] lay within 0.01 to 10 nM.

For `CC(C)(CNC(=O)C(=O)Nc1ccc2ccccc2c1)CNC(=O)c1ccc(Nc2nc(NC3(c4ccc(Cl)cc4)CC3)nc(OCC(F)(F)F)n2)cc1` [Compound 3347], the EC50 under setting [1] was 0.01 to 10 nM.

As for `COC(=O)[C@H](CCNC(=O)C(=O)Nc1cc(F)c(F)cc1F)NC(=O)c1ccc(Nc2nc(NC3(c4ccc(Cl)cc4)CC3)nc(OCC(F)(F)F)n2)cc1` [Compound 1510], the EC50 under setting [2] was in the range of 0.01 to 10 nM.

With `COC(=O)[C@H](CNC(=O)C(=O)Nc1ccc(-c2nncn2C)cc1)NC(=O)c1ccc(Nc2nc(NC3(c4ccc(Cl)cc4)CC3)nc(OCC(F)(F)F)n2)cc1` [Compound 3200], the EC50 under setting [1] lay in the range of 0.01 to 10 nM.

With `CN(C)C(=O)C(=O)NC[C@H](NC(=O)c1ccc(Nc2nc(NC3(c4ccc(Cl)cc4)CC3)nc(OCC(F)(F)F)n2)cc1)C(=O)OCCOCCO` [Compound 1023, (S)-2-(2-hydroxyethoxy)ethyl 2-(4-(4-(1-(4-chlorophenyl)cyclopropylamino)-6-(2,2,2-trifluoroethoxy)-1,3,5-triazin-2-ylamino)benzamido)-3-(2-(dimethylamino)-2-oxoacetamido)propanoate], the EC50 under setting [2] fell in the range of 0.01 to 10 nM.

With `CCOCCOc1ccc(NC(=O)C(=O)NC[C@H](NC(=O)c2ccc(Nc3nc(NC4(c5ccc(Cl)cc5)CC4)nc(OCC(F)(F)F)n3)cc2)C(=O)O)cc1` [Compound 3277], the EC50 under setting [1] was 0.01 to 10 nM.

As to `COc1ccc(CCNC(=O)C(=O)NC[C@H](NC(=O)c2ccc(Nc3nc(NC4(c5ccc(Cl)cc5)CC4)nc(OCC(F)(F)F)n3)cc2)C(=O)O)cc1` [Compound 1399], under setting [2], the EC50 fell in the range of 0.01 to 10 nM.

`O=C(NCCc1ccccc1F)C(=O)NCC[C@H](NC(=O)c1ccc(Nc2nc(NC3(c4ccc(Cl)cc4)CC3)nc(OCC(F)(F)F)n2)cc1)C(=O)O` [Compound 1334]: under setting [2], the EC50 fell in the range of 0.01 to 10 nM.

As to `NC(=O)C(=O)NC[C@H](NC(=O)c1ccc(Nc2nc(NC3(c4ccc(Cl)cc4)CC3)nc(OCC(F)(F)F)n2)cc1)C(=O)O` [Compound 1005, (S)-3-(2-amino-2-oxoacetamido)-2-(4-(4-(1-(4-chlorophenyl)cyclopropylamino)-6-(2,2,2-trifluoroethoxy)-1,3,5-triazin-2-ylamino)benzamido)propanoic acid], the EC50 under setting [2] lay within 0.01 to 10 nM.

For the molecule `Cn1ccnc1NC(=O)C(=O)NCC[C@H](NC(=O)c1ccc(Nc2nc(NC3(c4ccc(Cl)cc4)CC3)nc(OCC(F)(F)F)n2)cc1)C(=O)O` [Compound 1264], under setting [2], the EC50 fell in the range of 10 to 1000 nM.

`COC(=O)[C@H](CNC(=O)C(=O)Nc1ccc(-c2ccncc2)cc1)NC(=O)c1ccc(Nc2nc(NC3(c4ccc(Cl)cc4)CC3)nc(OCC(F)(F)F)n2)cc1` [Compound 3181]: the EC50 under setting [1] was in the range of 0.01 to 10 nM.

With `COC(=O)[C@H](CNC(=O)C(=O)Nc1ccc(-n2ccnc2C)cc1)NC(=O)c1ccc(Nc2nc(NC3(c4ccc(Cl)cc4)CC3)nc(OCC(F)(F)F)n2)cc1` [Compound 3203], the EC50 is, setting by setting: under setting [5], 5.47 nM; under setting [1], 0.01 to 10 nM.

Regarding `CC(C)(CNC(=O)C(=O)Nc1ccc(Cl)nc1)CNC(=O)c1ccc(Nc2nc(NC3(c4ccc(Cl)cc4)CC3)nc(OCC(F)(F)F)n2)cc1` [Compound 3255], the response under setting [5] was half-maximal at 0.029 nM (EC50) and the EC50 under setting [1] was in the range of 0.01 to 10 nM.

`O=C(NCCn1cccn1)C(=O)NC[C@H](NC(=O)c1ccc(Nc2nc(NC3(c4ccc(Cl)cc4)CC3)nc(OCC(F)(F)F)n2)cc1)C(=O)O` [Compound 1411]: the EC50 under setting [2] lay in the range of 0.01 to 10 nM.

Consider `CC(F)Oc1ccc(NC(=O)C(=O)NC[C@H](NC(=O)c2ccc(Nc3nc(NC4(c5ccc(Cl)cc5)CC4)nc(OCC(F)(F)F)n3)cc2)C(=O)O)cc1` (stereo partly drawn) [Compound 3298], for which, under setting [1], the EC50 lay in the range of 0.01 to 10 nM.

Regarding `COC(=O)[C@H](CCNC(=O)C(=O)NCC1CCCc2ccccc21)NC(=O)c1ccc(Nc2nc(NC3(c4ccc(Cl)cc4)CC3)nc(OCC(F)(F)F)n2)cc1` (stereo partly drawn) [Compound 1322], the EC50 under setting [2] lay in the range of 0.01 to 10 nM.

As to `CC(C)[C@@H]1CC[C@@H](C)C[C@H]1NC(=O)C(=O)NC[C@H](NC(=O)c1ccc(Nc2nc(NC3(c4ccc(Cl)cc4)CC3)nc(OCC(F)(F)F)n2)cc1)C(=O)O` [Compound 1095], the EC50 under setting [2] lay within 0.01 to 10 nM.

Take `CC(C)(CNC(=O)C(=O)Nc1cccc(F)c1F)CNC(=O)c1ccc(Nc2nc(NC3(c4ccc(Cl)cc4)CC3)nc(OCC(F)(F)F)n2)cc1` [Compound 3261]: the EC50 under setting [5] came to 0.072 nM and the EC50 under setting [1] was in the range of 0.01 to 10 nM.

With `CCOCC1(CNC(=O)C(=O)NCC[C@@H](NC(=O)c2ccc(Nc3nc(NC4(c5ccc(Cl)cc5)CC4)nc(OCC(F)(F)F)n3)cc2)C(=O)OC)CC1` [Compound 1379], under setting [2], the EC50 lay in the range of 0.01 to 10 nM.

For `Cc1ccc(CCNC(=O)C(=O)NC[C@H](NC(=O)c2ccc(Nc3nc(NC4(c5ccc(Cl)cc5)CC4)nc(OCC(F)(F)F)n3)cc2)C(=O)O)cc1` [Compound 1404], the EC50 under setting [2] lay in the range of 0.01 to 10 nM.

Turning to `O=C(NC[C@H](NC(=O)c1ccc(Nc2nc(NC3(c4ccc(Cl)cc4)CC3)nc(OCC(F)(F)F)n2)cc1)C(=O)O)C(=O)Nc1ccc(N2CCOCC2)nc1` [Compound 3759], the EC50 under setting [3] was in the range of 0.01 to 10 nM.

Turning to `COc1ccccc1CCNC(=O)C(=O)NCC[C@H](NC(=O)c1ccc(Nc2nc(NC3(c4ccc(Cl)cc4)CC3)nc(OCC(F)(F)F)n2)cc1)C(=O)O` [Compound 1329], under setting [2], the EC50 lay in the range of 0.01 to 10 nM.
